Patent publication US11813304B2, “Compounds and methods for inhibiting phosphate transport” (Ardelyx, Inc., priority 2013, dated 2023)

Tested on: HEK-293 cells
Assay: Sodium-dependent 33P phosphate uptake in HEK-293 cells (mock, rat or human NaP2b transfected)
Assay type: cell-based
Conditions: 5 μM EIPA; cells not pretreated to lower their intracellular pH; 23 min at room temperature
Procedure: Experiments were performed to test the relationship between alterations in intracellular pH and the uptake of phosphate ions (Pi) in human embryonic kidney cells (HEK-293 cells).
HEK-293 cells were seeded into 96-well plates at 25,000 cells/well and cultured overnight. Cells were then transfected with either rat or human NaP2b cDNA, or were mock transfected (no DNA) using Lipofectamine 2000 (Invitrogen). Cells were allowed to approach confluence during a second overnight incubation.
An ammonium pulse procedure was used to reduce the intracellular pH from ˜7.4 to ˜6.8. Medium was aspirated from the wells, cells were washed twice with NaCl-HEPES buffer (100 mM NaCl, 50 mM HEPES, 10 mM glucose, 5 mM KCl, 2 mM CaCl2, 1 mM MgCl2, pH 7.4), then incubated for 30 min at room temperature with NH4Cl-HEPES buffer (20 mM NH4Cl, 80 mM NaCl, 50 mM HEPES, 5 mM KCl, 2 mM CaCl2, 1 mM MgCl2, pH 7.4) containing 5 μM BCECF-AM. […] The reduction in intracellular pH to approximately pH 6.8 was verified by monitoring the pH sensitive changes in BCECF fluorescence (λex 505 nm, λem 538 nm) normalized to the pH insensitive BCECF fluorescence (λex 439 nm, λem 538 nm). […]
Uptake of ^33P was measured in the presence and absence of 5 μM EIPA, a specific inhibitor of NHE1. […] Cells were lysed by addition of 20 μL 0.1% Tween 80 followed by 100 μL scintillation fluid, and counted using a TopCount (Perkin Elmer).

Structure (SMILES): CCN(c1nc(N)c(C(=O)NC(=N)N)nc1Cl)C(C)C [EIPA]
- Pi uptake (33P): small yet significant decrease
